Results from paper PMC5224880, “Discovery and Molecular Basis of a Diverse Set of Polycomb Repressive Complex 2 Inhibitors Recognition by EED” (PLoS ONE, 2017).

Legend:
Type in all cases: biochemical
[1] = molecular target: MLL (MLL/WDR5/RBBP5/ASH2L) (Homo sapiens, UniProt Q03164); test: HMT panel selectivity: MLL
Procedure: (§1) Note: for EZH2, EZH2/EED/SUZ12/RBAP48/AEBP2 was used in the assay; for EZH1, EZH1/EED/SUZ12/RBAP48/AEBP2 was used in the assay; for MLL, MLL/WDR5/RBBP5/ASH2L/ was use in the assay. a, H3K27me0 peptide was used as substrate for both EZH2 and EZH1 activity; b, H3K27me1 peptide was used as substrate for both EZH2 and EZH1 activity. All HMT reactions were performed as described previously. ref: Proc Natl Acad Sci U S A. 2012 Dec 26;109(52):21360-5.

SETD6 = molecular target: T1, SETD6 (Homo sapiens, UniProt Q8TBK2); test: HMT panel selectivity: SETD6
T1 sequence (Q8TBK2 1-473): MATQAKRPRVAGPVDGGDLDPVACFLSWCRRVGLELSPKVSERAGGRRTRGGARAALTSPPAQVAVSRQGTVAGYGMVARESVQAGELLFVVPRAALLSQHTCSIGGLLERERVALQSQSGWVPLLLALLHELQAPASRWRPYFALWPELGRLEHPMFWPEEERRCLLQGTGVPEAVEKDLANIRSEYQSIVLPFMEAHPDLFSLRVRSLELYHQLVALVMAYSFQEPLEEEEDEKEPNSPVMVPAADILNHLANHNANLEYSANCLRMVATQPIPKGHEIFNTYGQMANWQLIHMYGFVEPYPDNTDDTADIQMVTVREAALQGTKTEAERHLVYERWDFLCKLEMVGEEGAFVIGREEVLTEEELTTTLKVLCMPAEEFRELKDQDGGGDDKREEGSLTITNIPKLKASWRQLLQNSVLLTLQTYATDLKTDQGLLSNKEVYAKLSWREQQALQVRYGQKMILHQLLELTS
Procedure: as §1

SMYD2 = SMYD2 (Homo sapiens, UniProt Q9NRG4); test: HMT panel selectivity: SMYD2
Chain of SMYD2 (Q9NRG4 whole entry, species assumed): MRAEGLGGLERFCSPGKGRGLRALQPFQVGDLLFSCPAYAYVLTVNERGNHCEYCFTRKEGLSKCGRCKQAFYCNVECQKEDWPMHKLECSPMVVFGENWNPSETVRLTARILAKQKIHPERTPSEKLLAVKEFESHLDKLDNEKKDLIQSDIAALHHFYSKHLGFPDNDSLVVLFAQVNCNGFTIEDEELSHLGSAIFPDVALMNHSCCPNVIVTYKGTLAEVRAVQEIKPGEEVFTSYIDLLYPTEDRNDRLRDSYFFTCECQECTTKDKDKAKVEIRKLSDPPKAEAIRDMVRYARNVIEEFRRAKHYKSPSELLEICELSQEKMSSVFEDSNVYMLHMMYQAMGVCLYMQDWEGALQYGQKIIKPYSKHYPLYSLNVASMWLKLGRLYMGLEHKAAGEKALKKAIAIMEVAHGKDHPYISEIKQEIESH
Procedure: as §1

NSD2 = molecular target: T2, NSD2 (Homo sapiens, UniProt O96028); test: HMT panel selectivity: NSD2
T2 sequence (O96028 1-1365): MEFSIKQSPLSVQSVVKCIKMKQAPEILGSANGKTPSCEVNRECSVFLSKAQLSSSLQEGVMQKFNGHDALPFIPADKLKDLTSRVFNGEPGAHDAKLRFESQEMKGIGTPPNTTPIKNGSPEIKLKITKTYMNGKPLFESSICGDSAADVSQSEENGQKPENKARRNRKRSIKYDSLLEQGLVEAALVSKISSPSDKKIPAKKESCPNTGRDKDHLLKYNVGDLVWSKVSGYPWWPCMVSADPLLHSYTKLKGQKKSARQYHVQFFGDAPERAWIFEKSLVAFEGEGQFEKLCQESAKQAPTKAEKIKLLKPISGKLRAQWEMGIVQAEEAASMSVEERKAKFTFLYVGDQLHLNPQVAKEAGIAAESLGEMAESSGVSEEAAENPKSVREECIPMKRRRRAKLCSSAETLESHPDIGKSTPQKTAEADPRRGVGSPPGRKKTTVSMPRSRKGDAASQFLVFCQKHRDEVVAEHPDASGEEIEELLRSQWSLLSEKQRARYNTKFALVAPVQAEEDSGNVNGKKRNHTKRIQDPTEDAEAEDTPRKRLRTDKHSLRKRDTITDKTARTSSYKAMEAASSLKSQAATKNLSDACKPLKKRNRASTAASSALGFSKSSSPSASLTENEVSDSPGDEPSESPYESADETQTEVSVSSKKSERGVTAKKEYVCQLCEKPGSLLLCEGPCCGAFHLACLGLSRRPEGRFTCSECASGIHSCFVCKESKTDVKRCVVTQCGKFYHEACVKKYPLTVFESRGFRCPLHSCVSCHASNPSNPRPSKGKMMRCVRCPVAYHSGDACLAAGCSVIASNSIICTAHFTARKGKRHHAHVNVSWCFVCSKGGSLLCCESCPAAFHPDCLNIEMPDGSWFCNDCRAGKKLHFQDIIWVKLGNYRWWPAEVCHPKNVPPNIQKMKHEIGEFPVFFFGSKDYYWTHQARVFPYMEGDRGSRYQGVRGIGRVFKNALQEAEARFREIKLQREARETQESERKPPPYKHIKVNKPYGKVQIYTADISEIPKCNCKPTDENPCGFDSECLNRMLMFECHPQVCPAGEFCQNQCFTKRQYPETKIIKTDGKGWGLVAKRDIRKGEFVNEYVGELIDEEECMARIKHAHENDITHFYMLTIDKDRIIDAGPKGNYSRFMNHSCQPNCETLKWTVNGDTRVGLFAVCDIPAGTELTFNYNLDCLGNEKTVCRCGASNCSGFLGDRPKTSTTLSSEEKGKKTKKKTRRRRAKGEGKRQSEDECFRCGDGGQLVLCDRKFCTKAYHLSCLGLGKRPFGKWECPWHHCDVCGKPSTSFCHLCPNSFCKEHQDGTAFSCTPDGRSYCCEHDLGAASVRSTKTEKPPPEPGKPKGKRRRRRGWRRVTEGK
Procedure: as §1

NSD1 = NSD1 (Homo sapiens, UniProt Q96L73); test: HMT panel selectivity: NSD1
Chain of NSD1 (Q96L73 whole entry, species assumed): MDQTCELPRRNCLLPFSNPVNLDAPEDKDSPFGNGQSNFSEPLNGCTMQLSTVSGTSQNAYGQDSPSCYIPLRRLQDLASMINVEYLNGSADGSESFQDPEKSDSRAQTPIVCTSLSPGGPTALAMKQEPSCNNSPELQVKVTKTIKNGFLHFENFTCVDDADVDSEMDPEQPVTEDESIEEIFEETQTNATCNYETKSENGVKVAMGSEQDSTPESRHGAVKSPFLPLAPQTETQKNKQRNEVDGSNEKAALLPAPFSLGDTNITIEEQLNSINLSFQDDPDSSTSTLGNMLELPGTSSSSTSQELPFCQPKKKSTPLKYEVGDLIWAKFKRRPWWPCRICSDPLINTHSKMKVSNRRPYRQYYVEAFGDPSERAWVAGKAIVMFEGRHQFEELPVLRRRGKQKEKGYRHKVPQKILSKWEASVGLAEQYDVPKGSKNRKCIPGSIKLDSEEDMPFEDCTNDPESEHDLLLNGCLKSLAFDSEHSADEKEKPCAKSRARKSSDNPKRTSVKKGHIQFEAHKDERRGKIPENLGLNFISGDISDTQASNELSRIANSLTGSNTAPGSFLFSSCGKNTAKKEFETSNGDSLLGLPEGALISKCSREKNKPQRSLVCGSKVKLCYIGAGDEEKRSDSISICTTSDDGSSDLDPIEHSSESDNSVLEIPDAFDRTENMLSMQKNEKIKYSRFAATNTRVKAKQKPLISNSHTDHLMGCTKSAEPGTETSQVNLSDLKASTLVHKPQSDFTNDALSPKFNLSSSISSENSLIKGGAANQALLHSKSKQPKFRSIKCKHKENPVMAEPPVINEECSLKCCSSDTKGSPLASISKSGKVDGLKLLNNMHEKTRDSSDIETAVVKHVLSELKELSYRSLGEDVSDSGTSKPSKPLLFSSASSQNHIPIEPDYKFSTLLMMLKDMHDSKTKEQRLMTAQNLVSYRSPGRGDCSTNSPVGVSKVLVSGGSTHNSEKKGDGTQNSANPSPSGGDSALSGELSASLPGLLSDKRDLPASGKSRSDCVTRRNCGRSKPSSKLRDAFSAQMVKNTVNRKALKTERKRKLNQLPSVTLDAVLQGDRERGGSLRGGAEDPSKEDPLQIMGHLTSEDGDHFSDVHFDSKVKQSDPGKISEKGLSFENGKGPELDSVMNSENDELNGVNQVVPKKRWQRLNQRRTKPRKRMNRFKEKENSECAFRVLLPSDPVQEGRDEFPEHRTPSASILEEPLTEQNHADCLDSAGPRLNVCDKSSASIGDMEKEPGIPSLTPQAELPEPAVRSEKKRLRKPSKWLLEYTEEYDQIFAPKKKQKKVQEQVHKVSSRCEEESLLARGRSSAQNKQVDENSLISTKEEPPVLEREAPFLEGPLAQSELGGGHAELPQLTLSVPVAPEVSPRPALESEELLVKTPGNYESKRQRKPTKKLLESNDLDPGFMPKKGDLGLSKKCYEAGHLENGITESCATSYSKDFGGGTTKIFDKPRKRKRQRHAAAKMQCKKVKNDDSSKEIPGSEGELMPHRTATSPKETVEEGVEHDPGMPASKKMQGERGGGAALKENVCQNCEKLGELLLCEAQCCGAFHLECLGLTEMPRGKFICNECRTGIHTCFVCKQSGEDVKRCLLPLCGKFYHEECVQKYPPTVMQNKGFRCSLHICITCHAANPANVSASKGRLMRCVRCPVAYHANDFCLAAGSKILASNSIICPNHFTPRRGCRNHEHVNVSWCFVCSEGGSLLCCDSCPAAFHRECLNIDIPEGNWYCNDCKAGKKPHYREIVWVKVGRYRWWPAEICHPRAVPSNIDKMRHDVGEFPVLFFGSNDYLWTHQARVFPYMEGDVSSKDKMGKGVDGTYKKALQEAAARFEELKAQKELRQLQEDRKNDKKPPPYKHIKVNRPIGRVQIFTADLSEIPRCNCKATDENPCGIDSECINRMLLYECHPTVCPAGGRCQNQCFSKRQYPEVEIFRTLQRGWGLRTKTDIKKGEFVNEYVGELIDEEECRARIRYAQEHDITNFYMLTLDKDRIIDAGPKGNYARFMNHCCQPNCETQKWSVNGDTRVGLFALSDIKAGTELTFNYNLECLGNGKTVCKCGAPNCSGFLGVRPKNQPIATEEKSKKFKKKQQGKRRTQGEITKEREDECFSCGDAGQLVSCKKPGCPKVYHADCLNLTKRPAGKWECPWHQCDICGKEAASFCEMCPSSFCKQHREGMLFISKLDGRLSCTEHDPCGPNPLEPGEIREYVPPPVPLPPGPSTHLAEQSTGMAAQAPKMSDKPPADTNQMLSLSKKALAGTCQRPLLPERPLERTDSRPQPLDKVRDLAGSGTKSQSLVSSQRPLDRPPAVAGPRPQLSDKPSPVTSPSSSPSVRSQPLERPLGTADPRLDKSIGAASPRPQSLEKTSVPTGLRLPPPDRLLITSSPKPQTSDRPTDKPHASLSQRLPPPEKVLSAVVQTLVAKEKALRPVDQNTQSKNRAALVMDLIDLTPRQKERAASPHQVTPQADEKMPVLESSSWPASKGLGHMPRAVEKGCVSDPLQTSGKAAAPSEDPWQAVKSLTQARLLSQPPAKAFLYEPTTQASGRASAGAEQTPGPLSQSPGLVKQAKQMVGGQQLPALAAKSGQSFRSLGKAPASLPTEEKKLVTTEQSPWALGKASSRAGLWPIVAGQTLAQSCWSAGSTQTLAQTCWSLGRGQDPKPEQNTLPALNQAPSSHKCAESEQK
Procedure: as §1

PRMT1 = PRMT1 (Homo sapiens, UniProt Q99873); test: HMT panel selectivity: PRMT1
Chain of PRMT1 (Q99873 whole entry, species assumed): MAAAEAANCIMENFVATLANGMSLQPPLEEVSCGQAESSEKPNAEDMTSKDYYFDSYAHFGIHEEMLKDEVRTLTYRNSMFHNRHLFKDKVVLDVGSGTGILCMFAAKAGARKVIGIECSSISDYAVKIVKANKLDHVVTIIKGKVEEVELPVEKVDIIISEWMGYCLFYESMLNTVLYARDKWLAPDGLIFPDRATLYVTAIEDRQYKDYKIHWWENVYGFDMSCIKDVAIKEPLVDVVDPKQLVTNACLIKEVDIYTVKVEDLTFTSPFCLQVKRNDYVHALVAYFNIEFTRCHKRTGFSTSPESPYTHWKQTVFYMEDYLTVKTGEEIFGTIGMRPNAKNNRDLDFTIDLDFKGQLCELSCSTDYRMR
Procedure: as §1

PRMT3 = PRMT3 (Homo sapiens, UniProt O60678); test: HMT panel selectivity: PRMT3
Chain of PRMT3 (O60678 whole entry, species assumed): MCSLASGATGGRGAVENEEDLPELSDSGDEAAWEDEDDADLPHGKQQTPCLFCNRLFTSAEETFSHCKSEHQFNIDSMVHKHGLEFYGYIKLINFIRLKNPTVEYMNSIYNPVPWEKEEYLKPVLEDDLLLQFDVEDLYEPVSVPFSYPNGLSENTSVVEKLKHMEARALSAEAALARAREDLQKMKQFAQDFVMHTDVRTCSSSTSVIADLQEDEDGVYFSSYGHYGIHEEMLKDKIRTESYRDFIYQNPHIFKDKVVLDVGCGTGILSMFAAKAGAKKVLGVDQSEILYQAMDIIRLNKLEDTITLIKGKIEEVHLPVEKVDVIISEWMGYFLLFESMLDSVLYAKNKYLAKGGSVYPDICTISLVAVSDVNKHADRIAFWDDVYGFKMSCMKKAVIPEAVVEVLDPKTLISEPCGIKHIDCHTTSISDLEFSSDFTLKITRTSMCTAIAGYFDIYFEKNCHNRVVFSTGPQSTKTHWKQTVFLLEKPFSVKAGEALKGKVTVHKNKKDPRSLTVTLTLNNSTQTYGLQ
Procedure: as §1

CARM1 = molecular target: T3, CARM1 (Homo sapiens, UniProt Q86X55); test: HMT panel selectivity: CARM1
T3 sequence (Q86X55 1-608): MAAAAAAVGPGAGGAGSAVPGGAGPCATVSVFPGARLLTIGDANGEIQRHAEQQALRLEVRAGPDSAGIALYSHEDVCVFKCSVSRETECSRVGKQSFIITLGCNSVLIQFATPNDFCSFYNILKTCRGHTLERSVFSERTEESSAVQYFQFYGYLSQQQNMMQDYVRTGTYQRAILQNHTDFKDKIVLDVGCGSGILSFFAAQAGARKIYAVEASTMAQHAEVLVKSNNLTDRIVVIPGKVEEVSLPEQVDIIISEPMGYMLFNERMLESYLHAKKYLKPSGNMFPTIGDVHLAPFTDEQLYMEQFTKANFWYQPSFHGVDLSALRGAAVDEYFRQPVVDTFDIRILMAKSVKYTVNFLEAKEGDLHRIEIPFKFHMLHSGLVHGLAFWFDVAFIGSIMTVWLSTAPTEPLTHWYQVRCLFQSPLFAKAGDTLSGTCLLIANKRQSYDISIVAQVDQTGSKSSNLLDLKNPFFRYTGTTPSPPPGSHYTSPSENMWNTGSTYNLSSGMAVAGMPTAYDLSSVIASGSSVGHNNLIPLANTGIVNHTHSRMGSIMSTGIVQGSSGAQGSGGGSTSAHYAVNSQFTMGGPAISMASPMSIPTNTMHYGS
Procedure: as §1

Measured: IC50

COc1cccc(CC2CC3Cc4c(cccc4OC)CC3N(C)C2)c1 (stereo not shown) [EED210]
> 100 µM: all assays above

COc1cc(-c2cc3n(c(=N)c2C#N)CCc2cc4c(cc2-3)OCO4)ccc1OC(C)C [EED396]
> 100 µM: all assays above

Cc1cc(C)n(-c2cc(N3CCc4ccccc4C3)ccc2[N+](=O)[O-])n1 [EED666]
> 100 µM: all assays above

N#Cc1c2c(c3nncn3c1NCc1ccco1)CN(Cc1ccccc1)CC2 [EED162]
> 100 µM: all assays above

COc1ccccc1CN1CC(c2cn(C)c3ccccc23)C(N(C)C)C1 (stereo not shown) [EED709]
> 100 µM: all assays above
